{
  "source": "paper PMC12220852",
  "about": "“An adamantane‐based ligand as a novel chemical tool for thermosensory TRPM8 channel therapeutic modulation” (The Febs Journal, 2025)",
  "key": {"hTRPA1": {"target": "T1, hTRPA1 (Homo sapiens, UniProt O75762)", "T1 construct": "expressed in transfected cells; host or cells: HEK293 (transient, Lipofectamine 3000)", "T1 sequence (O75762 whole entry)": "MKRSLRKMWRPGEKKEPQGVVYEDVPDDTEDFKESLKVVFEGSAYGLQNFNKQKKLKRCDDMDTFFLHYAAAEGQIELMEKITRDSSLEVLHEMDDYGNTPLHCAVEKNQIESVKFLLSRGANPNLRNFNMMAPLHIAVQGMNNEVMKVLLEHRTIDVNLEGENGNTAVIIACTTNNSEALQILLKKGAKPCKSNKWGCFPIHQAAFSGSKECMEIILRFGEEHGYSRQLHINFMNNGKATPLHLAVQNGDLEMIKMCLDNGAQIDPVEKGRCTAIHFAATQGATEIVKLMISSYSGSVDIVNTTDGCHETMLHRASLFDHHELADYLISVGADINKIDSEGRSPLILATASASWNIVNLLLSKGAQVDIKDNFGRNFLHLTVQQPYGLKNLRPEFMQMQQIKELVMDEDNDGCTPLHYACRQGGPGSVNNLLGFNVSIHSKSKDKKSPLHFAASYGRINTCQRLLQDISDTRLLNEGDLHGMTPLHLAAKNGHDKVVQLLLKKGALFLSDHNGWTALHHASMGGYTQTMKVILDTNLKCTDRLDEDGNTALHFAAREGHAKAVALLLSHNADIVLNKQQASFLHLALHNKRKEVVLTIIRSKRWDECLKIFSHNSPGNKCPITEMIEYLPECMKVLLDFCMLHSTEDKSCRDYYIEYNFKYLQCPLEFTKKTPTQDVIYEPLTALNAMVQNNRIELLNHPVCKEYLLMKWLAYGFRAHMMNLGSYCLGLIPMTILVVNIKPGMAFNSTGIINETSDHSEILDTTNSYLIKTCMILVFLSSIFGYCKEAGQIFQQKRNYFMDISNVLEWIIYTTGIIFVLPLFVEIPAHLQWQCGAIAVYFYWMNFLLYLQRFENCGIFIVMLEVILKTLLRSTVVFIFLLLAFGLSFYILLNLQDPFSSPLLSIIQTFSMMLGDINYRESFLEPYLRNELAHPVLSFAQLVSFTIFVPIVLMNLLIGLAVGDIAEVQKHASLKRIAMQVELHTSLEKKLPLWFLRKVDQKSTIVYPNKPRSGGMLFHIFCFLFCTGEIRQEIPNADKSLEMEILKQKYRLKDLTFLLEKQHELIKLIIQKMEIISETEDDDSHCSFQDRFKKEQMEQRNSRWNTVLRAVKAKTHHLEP", "experiment": "Whole-cell patch-clamp of AITC-evoked currents in HEK293 cells expressing hTRPA1", "assay_type": "cell-based", "conditions": "−60 mV", "procedure": "To evaluate receptor selectivity, we investigated the activity of compound 23 on recombinant hTRPV1 and hTRPA1 channels recombinantly expressed in HEK293 cells (Fig. 4). We choose these thermosensory channels because of their structural similarity and expression in peripheral nociceptive terminals. In addition, some ligand cross‐interaction within these channels has been reported.\nRecording through patch‐clamp techniques was performed on HEK293 cells cultured in DMEM GlutaMax with 10% FBS and 1% P/S. The cell lines were authenticated following the standardization of STR Profiling guidelines (ANSI/ATCC ASN‐0002‐2022) using the CLA Identifier Plus PCR Amplification Kit (Thermo Fisher‐A44660) to analyze 16 highly variant human STRs. The cells were confirmed to be mycoplasma‐free. These cells were transiently transfected with plasmids encoding hTRPV1, hTRPM8, or hTRPA1 using Lipofectamine 3000. Transfected cells were seeded on 12 mm Ø glass coverslips treated with poly‐L‐lysine solution and recorded 2 days post‐transfection. The intracellular pipette solution included (in mM) 150 NaCl, 3 MgCl2, 5 EGTA, and 10 HEPES, pH 7.2 with CsOH, while the extracellular solution contained (in mM) 150 NaCl, 6 CsCl, 1 MgCl2, 1.5 CaCl2, 10 glucose, and 10 HEPES, pH 7.4 with NaOH. An EPC‐10 amplifier with Patchmaster software was used in whole‐cell experiments. Patch pipettes, created from thin‐wall borosilicate capillary glass tubing, were pulled with a Micropipette puller to a final resistance of 2–8 MΩ when filled with the internal solution. Recordings were acquired at 10 kHz and low‐pass filtered at 3 kHz, discarding recordings with leak currents > 200pA or series resistance > 20 MΩ. In voltage‐clamp recordings, cells were held at a constant potential, and the application of modulators was carried out using a gravity‐driven perfusion system. […] Leak currents were not subtracted, and conductance was calculated using the equation: G = I/(V − V r), where I is the measured ionic current, V is the applied voltage, and V r is the reversal potential that for the ionic conditions used was set to 0 mV. […]"}, "[1]": {"target": "T2, neuronal TRPM8 channels (mTRPM8) in dorsal root ganglion neurons (Mus musculus, UniProt Q8R4D5)", "T2 construct": "neuronal TRPM8 channels expressed in murine primary nociceptor cultures; endogenous in cells; host or cells: primary cultures of mouse dorsal root ganglion neurons", "T2 sequence (Q8R4D5 whole entry)": "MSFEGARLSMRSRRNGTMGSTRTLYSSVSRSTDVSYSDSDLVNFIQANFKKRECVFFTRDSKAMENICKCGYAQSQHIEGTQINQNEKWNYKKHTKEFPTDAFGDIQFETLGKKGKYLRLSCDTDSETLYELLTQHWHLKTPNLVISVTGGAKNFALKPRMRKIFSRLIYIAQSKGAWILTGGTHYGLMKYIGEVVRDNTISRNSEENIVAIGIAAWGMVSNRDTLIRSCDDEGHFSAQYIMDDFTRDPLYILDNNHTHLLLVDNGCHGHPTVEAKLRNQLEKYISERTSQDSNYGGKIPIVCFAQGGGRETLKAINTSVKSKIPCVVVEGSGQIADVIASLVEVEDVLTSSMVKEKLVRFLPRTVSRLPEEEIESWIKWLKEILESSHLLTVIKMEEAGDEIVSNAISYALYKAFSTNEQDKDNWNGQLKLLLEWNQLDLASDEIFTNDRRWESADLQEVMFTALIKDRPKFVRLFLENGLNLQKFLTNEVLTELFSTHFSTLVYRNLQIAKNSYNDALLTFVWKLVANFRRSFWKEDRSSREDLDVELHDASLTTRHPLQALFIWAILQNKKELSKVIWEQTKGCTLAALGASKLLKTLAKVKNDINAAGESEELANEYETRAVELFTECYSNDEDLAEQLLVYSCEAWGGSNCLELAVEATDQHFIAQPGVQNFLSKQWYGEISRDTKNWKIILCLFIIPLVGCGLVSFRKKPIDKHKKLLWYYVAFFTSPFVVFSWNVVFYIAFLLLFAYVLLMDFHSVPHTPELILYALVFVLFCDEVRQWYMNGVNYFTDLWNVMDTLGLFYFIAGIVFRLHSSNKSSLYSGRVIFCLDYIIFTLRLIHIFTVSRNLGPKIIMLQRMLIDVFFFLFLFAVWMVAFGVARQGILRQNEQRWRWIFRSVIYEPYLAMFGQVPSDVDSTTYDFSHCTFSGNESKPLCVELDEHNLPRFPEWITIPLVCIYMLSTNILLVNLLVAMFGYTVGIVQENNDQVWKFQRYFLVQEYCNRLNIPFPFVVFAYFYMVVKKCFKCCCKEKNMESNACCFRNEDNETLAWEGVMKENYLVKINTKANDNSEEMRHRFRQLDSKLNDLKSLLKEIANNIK", "experiment": "Patch-clamp of WS-12-evoked currents in primary DRG nociceptor cultures", "assay_type": "cell-based, murine", "conditions": "WS-12 evoked current, −60 mV, N = 3, n = 8; read-out: IC50 of mTRPM8 current blockade in DRG neurons", "excerpt": "To examine the in vivo activity of compound 23, we first investigated its inhibitory potency on neuronal TRPM8 channels expressed in murine primary nociceptor cultures by patch‐clamp. […] Alternatively, it could also be due to distinct gating mechanisms of both orthologs or the influence of the neuronal environment.\nPrimary cultures of neonatal dorsal root ganglia were used for multielectrode array (MEA) and patch‐clamp experiments following established methodologies previously described. Neonatal dorsal root ganglia (DRGs) were obtained from Wistar rats (3–5 days old) and were isolated and digested with 0.25% (w/v) collagenase (type IA) in DMEM GlutaMax with 1% (v/v) penicillin/streptomycin (P/S) solution for 1 h at 37 °C in a 5% CO2 Thermo Scientific incubator. Following digestion, DRGs were mechanically dissociated and passed through a 100 μm cell strainer to obtain single‐cell suspensions. Suspensions were washed with DMEM GlutaMax with 10% (v/v) fetal bovine serum (FBS) and 1% (v/v) penicillin/streptomycin (P/S). Cells were then seeded in microelectrode array chambers coated with poly‐L‐lysine (8.3 μg·mL^−1) and laminin (5 μg·mL^−1). After 1 h, the medium was replaced with DMEM GlutaMax, 10% (v/v) FBS, and 1% (v/v) P/S, supplemented with mouse 2.5S NGF 50 ng·mL^−1 and 1.25 μg·mL^−1 cytosine arabinoside. […]"}},
  "data": [
    {"smiles": "O=C(COC(=O)c1ccccc1-c1ccccc1)NC12CC3CC(CC(C3)C1)C2", "note": "[Compound 23, 2‐((3S,5S,7S)‐adamantan‐1‐ylamino)‐2‐oxoethyl [1,1′‐biphenyl]‐2‐carboxylate]", "values": [
      {"measurement": "block of hTRPA1‐evoked (AITC) current", "setting": "hTRPA1; 5 μM compound, 60 μM AITC", "result": "≈ 60%"},
      {"measurement": "IC50", "setting": "hTRPA1; AITC-evoked current, n = 8, read-out: IC50 of hTRPA1 current blockade", "result": "3.04 ± 2.01", "unit": "µM"},
      {"measurement": "IC50", "setting": "[1]", "result": "0.43 ± 0.75", "unit": "µM"}
    ]}
  ]
}
